US11072585B2 (PharmAkea, Inc., priority 2015, dated 2021)

Legend:
human LOXL2 = human LOXL2 (Homo sapiens (Human), UniProt Q9Y4K0); experiment: Human LOXL2 amine oxidase activity assay (Amplex Red); type: biochemical; details: concentrated conditioned media from CHO cells stably expressing human LOXL2; 2 h at 37° C. with compound; DAP substrate
Summary of the method: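 Concentrated conditioned medium from CHO cells stably expressing human LOXL2 was preincubated with compound for 2 h at 37 °C in 50 mM borate, pH 8. 1,5-diaminopentane substrate and Amplex Red/HRP were then added. Fluorescence (544/590) was read kinetically every 2 min for 1 h, with activity taken from the linear slope.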

[1] = tested on: bleomycin-induced lung fibrosis in C57Bl/6 male mice; experiment: Mouse oropharyngeal bleomycin model of lung fibrosis; type: in vivo; details: for efficacy in bleomycin lung fibrosis model, prophylactic dosing: dosed prophylactically at 60 mg/kg p.o.
Method: Example B-3: Mouse Oropharyngeal Bleomycin Model of Lung Fibrosis
Lung fibrosis is induced in C57Bl/6 male mice by administering bleomycin (0.1-4 U/kg) via oropharyngeal instillation. Mice are either pretreated with vehicle or test compound (1 day to 1 hour) orally, intraperitoneally, intravenously or subcutaneously before bleomycin installation (prophylactic dosing) or 7-14 days post bleomycin instillation (therapeutic dosing). The route and frequency of dosing are based on previously determined pharmacokinetic properties for the LOXL2 inhibitor in mouse. After bleomycin instillation animals are monitored daily for weight loss and clinical signs for 14-28 days prior to sacrifice. Animals are euthanized at study termination and weighed and blood (for isolation of plasma) and bronchoalveolar lavage are collected and frozen for subsequent analyses. Lungs are removed, weighed, then either inflated and fixed by instillation of 10% formalin and prepared for histological examination or homogenized in 1 ml PBS for collagen determination using a hydroxyproline assay. For histological examination, lung slices are stained with Masson's trichrome or Picro-Sirius red to measure cross-linked collagen as an indicator of fibrosis and an Ashcroft score of lung fibrotic and inflammatory damage determined. In addition, immunohistochemistry of fibrotic proteins such as a-smooth muscle actin can be recorded. For lung hydroxyproline content, 0.5 ml of the lung homogenate is removed and added to 0.5 ml 12 N HCl and the samples heated at 120° C. overnight. After the acid hydrolysis, 25-100 μl of the supernatant is dried down, resuspended in 25 μl water and the hydroxyproline content determined by the addition of 0.5 ml Chloramine T solution (140 mg Chloramine T in 6.5 ml ddH2O+1 ml n-propanol+2.5 ml 1M sodium acetate) and incubation at room temperature for 20 min. After the incubation, 0.5 ml Erlich's solution (1.48 g of 4-(dimethylamino(benzaldehyde) in 7 ml n-propanol+2.88 ml 60% perchloric acid and 0.12 ml ddH2O) is added and incubated at 65° C. for 15 min before reading the absorbance at 550 nm. The concentration of hydroxyproline in each […] is determined from a hydroxyproline (purchased from Sigma) standard curve.

[2] = tested on: kidney fibrosis in Col4A3 deficient mice; experiment: Mouse Alport model of kidney fibrosis; type: in vivo; details: dosed prophylactically at 30 mg/kg p.o.
Method: Example B-7: Mouse Alport Model of Kidney Fibrosis
Mice with mutations in one of the genes of glomerular basement membrane collagen, Collagen IV-a3/a4/a5, have defects in glomerular function with development of kidney fibrosis These mice develop renal dysfunction and die prematurely of renal failure with specific timing dependent on the strain background upon which the mutation is present. LOXL2 inhibitors are administered orally to Col4A3 deficient mice on a SV129 background either prophylactically (ca. weeks 2-3 of age) or therapeutically (ca. weeks 4-6 wks of age). Mice are either sacrificed at a predefined time (7-9 wks of age) or continually dosed until they lose >15% of their body weight which preceeds death by 1-3 days. If specifically terminated, mice are perfused transcardially with PBS, and one kidney clamped at the renal artery and the other perfused with Dynabeads for magnetic isolation of glomeruli. […] RNA from glomeruli and renal cortex is analyzed by real time RT-PCR for genes of interest including MMP-10, MMP-12, IL6, MCP-1, TGF-b1, CTGF, MMP-2, and MMP-9. […] Collagen 1 staining is blindly analyzed for fibrosis scoring, and fibronectin staining is blindly analyzed for glomerulosclerosis scoring. For all studies albuminuria is assessed weekly and BUN at the time of tissue harvest.

human LOXL2, sequence (Q9Y4K0 26-774): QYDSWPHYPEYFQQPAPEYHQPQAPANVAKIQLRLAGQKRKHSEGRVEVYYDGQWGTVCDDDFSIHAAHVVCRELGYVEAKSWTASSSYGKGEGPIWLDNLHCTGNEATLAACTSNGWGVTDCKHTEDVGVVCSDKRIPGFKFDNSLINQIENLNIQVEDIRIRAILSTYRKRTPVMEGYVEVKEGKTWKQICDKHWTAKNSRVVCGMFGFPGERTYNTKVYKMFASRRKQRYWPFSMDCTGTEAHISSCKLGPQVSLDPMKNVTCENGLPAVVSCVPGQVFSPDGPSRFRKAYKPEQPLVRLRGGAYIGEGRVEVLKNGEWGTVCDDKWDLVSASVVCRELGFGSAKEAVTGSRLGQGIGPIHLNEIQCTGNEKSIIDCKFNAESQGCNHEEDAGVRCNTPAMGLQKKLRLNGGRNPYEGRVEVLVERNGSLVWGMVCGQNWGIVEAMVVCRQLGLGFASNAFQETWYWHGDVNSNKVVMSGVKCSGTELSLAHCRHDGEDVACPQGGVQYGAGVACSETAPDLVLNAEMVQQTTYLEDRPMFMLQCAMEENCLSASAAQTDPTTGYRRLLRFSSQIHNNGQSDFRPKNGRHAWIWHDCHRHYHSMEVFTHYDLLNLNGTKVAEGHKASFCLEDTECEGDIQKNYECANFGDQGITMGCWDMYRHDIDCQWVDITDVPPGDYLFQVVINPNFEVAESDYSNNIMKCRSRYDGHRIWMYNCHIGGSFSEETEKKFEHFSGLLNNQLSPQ

Row | Structure (SMILES) | IC50 (human LOXL2) [nM] | efficacy in bleomycin lung fibrosis model, prophylactic dosing [1] | efficacy in bleomycin lung fibrosis model, therapeutic dosing ([1]; dosed therapeutically at 60 mg/kg p.o.) | efficacy in Alport kidney fibrosis model, prophylactic dosing [2]
1 | Cl.NCc1cc(Oc2cccc(C(=O)N3C[C@@H](O)[C@H](F)C3)c2)nc(C(F)(F)F)c1 (stereo in doubt) [Compound 1-21, (R,R)-trans-(3-((4-(Aminomethyl)-6-(trifluoromethyl)pyridin-2-yl)oxy)phenyl)(3-fluoro-4-hydroxypyrrolidin-1-yl)methanone hydrochloride] | < 300 | efficacious | efficacious | efficacious
2 | Cl.NCc1cc(Oc2cccc3c2CCC(=O)N3)nc(C(F)(F)F)c1 [Compound 1-59, 5-((4-(Aminomethyl)-6-(trifluoromethyl)pyridin-2-yl)oxy)-3,4-dihydroquinolin-2(1H)-one hydrochloride] | < 300 | efficacious |  | 
